Measurements taken from the NIST ThermoML archive (doi:10.1016/j.jct.2016.07.040).

Conditions: Crystal; for vapor or sublimation pressure: Calculated from knudsen effusion weight loss

[Np+4].[O-2].[O-2] [neptunium(IV) oxide]
Conditions | mass density [kg/m3]
295 K, 101.33 kPa, X-ray diffraction | 11140

Conditions | vapor or sublimation pressure [kPa]
2054.9 K | 3.295e-05
2056.2 K | 3.366e-05
2057.9 K | 3.51e-05
2060.1 K | 3.662e-05
2062.3 K | 3.796e-05
2064.8 K | 3.874e-05
2067.1 K | 4.025e-05
2069.1 K | 4.246e-05
2071.4 K | 4.393e-05
2073.9 K | 4.623e-05
2076.6 K | 4.712e-05
2078.6 K | 4.956e-05
2081.3 K | 5.123e-05
2083.9 K | 5.383e-05
2086.1 K | 5.495e-05
2088.4 K | 5.784e-05
2090.9 K | 5.955e-05
2093.2 K | 6.187e-05
2095.7 K | 6.433e-05
2098.6 K | 6.692e-05
2100.8 K | 6.877e-05
2103.4 K | 7.176e-05
2105.9 K | 7.462e-05
2108.1 K | 7.729e-05
2111.2 K | 8.054e-05
2113.1 K | 8.434e-05
2115.9 K | 8.748e-05
2118.1 K | 9.035e-05
2120.3 K | 9.314e-05
2122.9 K | 9.644e-05
2125.2 K | 9.94e-05
2127.9 K | 0.0001045
2130.5 K | 0.0001097
2132.7 K | 0.0001123
2135.3 K | 0.0001157
2137.4 K | 0.0001217
2139.9 K | 0.0001239
2142.7 K | 0.0001288
2145.2 K | 0.0001332
2147.5 K | 0.0001386
2149.8 K | 0.0001358
2150.2 K | 0.0001442
2151.3 K | 0.0001375
2152.2 K | 0.0001394
2152.6 K | 0.0001498
2152.8 K | 0.0001433
2154.4 K | 0.0001447
2154.9 K | 0.0001542
2155.9 K | 0.0001583
2156 K | 0.0001482
2157.3 K | 0.0001517
2158.4 K | 0.0001543
2160.3 K | 0.0001598
2161.7 K | 0.0001597
2162.9 K | 0.0001642
2164.5 K | 0.0001713
2166.2 K | 0.0001748
2167.4 K | 0.000178
2168.5 K | 0.0001787
2170.6 K | 0.0001874
2172.1 K | 0.0001888
2173.8 K | 0.0001909
2175.3 K | 0.0001994
2176.6 K | 0.0002036
2178.6 K | 0.0002068
2179.8 K | 0.0002135
2181 K | 0.0002199
2183.2 K | 0.0002228
2184.5 K | 0.0002278
2186.2 K | 0.0002338
2187.7 K | 0.0002364
2189.2 K | 0.0002417
2191.4 K | 0.0002525
2193.1 K | 0.0002543
2194.3 K | 0.0002622
2196 K | 0.0002656
2197.8 K | 0.0002726
2199.7 K | 0.0002771
2200.8 K | 0.0002867
2202.4 K | 0.0002946
2204.7 K | 0.0002992
2206.6 K | 0.0003045
2207.4 K | 0.0003104
2209.3 K | 0.0003162
2211.2 K | 0.0003286
2212.7 K | 0.0003354
2214.4 K | 0.0003408
2216.4 K | 0.0003502
2218.1 K | 0.0003597
2218.9 K | 0.0003644
2220.7 K | 0.0003741
2222.9 K | 0.0003833
2224.6 K | 0.0003931
2225.9 K | 0.0004013
2227.7 K | 0.000407
2229.2 K | 0.0004206
2231 K | 0.0004254
2232.9 K | 0.0004344
2233.8 K | 0.0004466
2235.8 K | 0.0004515
2237.8 K | 0.0004628
2239.3 K | 0.0004711
2240.7 K | 0.0004792
2242.2 K | 0.0004974
2243.7 K | 0.0005095
2245.8 K | 0.0005148
2247.3 K | 0.0005247
2249.2 K | 0.00054
2250.6 K | 0.0005507
2252.1 K | 0.0005593
2254.2 K | 0.0005708
2255.6 K | 0.0005856
2257.4 K | 0.0005944
2258.3 K | 0.0006052
2258.7 K | 0.0006098
2259.2 K | 0.0006132
